# Experimental data from patent US20070117770A1, “Human ribosomal DNA (rDNA) and ribosomal RNA (rRNA) nucleic acids and uses thereof” (Cylene Pharmaceuticals, Inc., priority 2005, published 2007).
# Experiments:
# Experiment in all cases: Protein kinase inhibition assay
# Assay type in all cases: biochemical
# [1] = target: Ros(h) (Homo sapiens, UniProt P08922); conditions: read-out: percent residual activity of Ros(h)
# Description: (§1) Certain compounds were tested for activity in protein kinase inhibition assays. All substrates were dissolved and diluted to working stocks in de-ionized water, apart from histone H1 (10× working stock in 20 mM MOPS pH 7.0), PDKtide (10× working stock in 50 mM Tris pH 7.0) ATF2 (which is typically stored at a 20× working stock in 50 mM Tris pH 7.5, 150 mM NaCl, 0.1 mM EGTA, 0.03% Brij-35, 50% glycerol, 1 mM benzamidine, 0.2 mM PMSF and 0.1% R-mercaptoethanol), KKLNRTLSFAEPG (SEQ ID NO:203) and RRRLSFAEPG (SEQ ID NO:204) (50 mM HEPES pH 7.4) and GGEEEEYFELVKKKK (SEQ ID NO:205) (20 mM MOPS pH 7.0). All kinases were pre-diluted to a 10× working concentration prior to addition into the assay. The composition of the dilution buffer for each kinase is detailed below.
# (§2) In a final reaction volume of 25 μl, Ros (h) (5-10 mU) is incubated with 8 mM MOPS pH 7.0, 0.2 mM EDTA, 10 mM MnCl2, 250 μM KKKSPGEYVNIEFG (SEQ ID NO:207), 10 mM MgAcetate and [gamma-33P-ATP] (specific activity approx. 500 cpm/pmol, concentration as required). The reaction is initiated by the addition of the MgATP mix. After incubation for 40 minutes at room temperature, the reaction is stopped by the addition of 5 μl of a 3% phosphoric acid solution. […]
# [2] = target: MSK2(h) (Homo sapiens, UniProt O75676); conditions: read-out: percent residual activity of MSK2(h)
# Description: as §1
# (§3) In a final reaction volume of 25 μl, MSK2 (h) (5-10 mU) is incubated with 8 mM MOPS pH 7.0, 0.2 mM EDTA, 30 μM GRPRTSSFAEGKK (SEQ ID NO:220), 10 mM MgAcetate and [gamma-33P-ATP] (specific activity approx. 500 cpm/pmol, concentration as required). The reaction is initiated by the addition of the MgATP mix. After incubation for 40 minutes at room temperature, the reaction is stopped by the addition of 5 μl of a 3% phosphoric acid solution. 10 μl of the reaction is then spotted onto a P30 filtermat and washed three times for 5 minutes in 75 mM phosphoric acid and once in methanol prior to drying and scintillation counting.
# [3] = target: IGF-1R(h) (Homo sapiens, UniProt P08069); conditions: read-out: percent residual activity of IGF-1R(h)
# Description: as §1
# In a final reaction volume of 25 μl, IGF-1R (h) (5-10 mU) is incubated with 50 mM Tris pH 7.5, 0.1 mM EGTA, 0.1 mM Na3VO4, 0.1% R-mercaptoethanol, 250 μM KKKSPGEYVNIEFG (SEQ ID NO:207), 10 mM MnCl2, 10 mM MgAcetate and [gamma-33P-ATP] (specific activity approx. 500 cpm/pmol, concentration as required). The reaction is initiated by the addition of the MgATP mix. After incubation for 40 minutes at room temperature, the reaction is stopped by the addition of 5 μl of a 3% phosphoric acid solution. […]
# [4] = target: PKCι(h) (Homo sapiens, UniProt P41743); conditions: read-out: percent residual activity of PKCι(h)
# Description: as §1
# as §2, with “PKCι” for “Ros”, “20” for “8”, “HEPES” for “MOPS”, “7.4, 0.03%. Triton X-100, 50” for “7.0, 0.2 mM EDTA, 10 mM MnCl2, 250”, “ERMRPRKRQGSVRRRV” for “KKKSPGEYVNIEFG”, “NO:224),” for “NO:207),”
# [5] = target: CDK7/cyclinH/MAT1(h) (Homo sapiens, UniProt P50613); conditions: read-out: percent residual activity of CDK7/cyclinH/MAT1(h)
# Description: as §1
# as §3, with “μl, CDK7/cyclinH/MAT1” for “μl, MSK2”, “EDTA, 500” for “EDTA, 30”, “μM peptide,” for “μM GRPRTSSFAEGKK (SEQ ID NO:220),”, “and [y-33P-ATP]” for “and [gamma-33P-ATP]”
# [6] = target: ASK1(h) (Homo sapiens, UniProt Q99683); conditions: read-out: percent residual activity of ASK1(h)
# Description: as §1
# as §3, with “ASK1” for “MSK2”, “0.33 mg/ml myelin basic protein,” for “30 μM GRPRTSSFAEGKK (SEQ ID NO:220),”
# Chain of ASK1(h) (Q99683 whole entry): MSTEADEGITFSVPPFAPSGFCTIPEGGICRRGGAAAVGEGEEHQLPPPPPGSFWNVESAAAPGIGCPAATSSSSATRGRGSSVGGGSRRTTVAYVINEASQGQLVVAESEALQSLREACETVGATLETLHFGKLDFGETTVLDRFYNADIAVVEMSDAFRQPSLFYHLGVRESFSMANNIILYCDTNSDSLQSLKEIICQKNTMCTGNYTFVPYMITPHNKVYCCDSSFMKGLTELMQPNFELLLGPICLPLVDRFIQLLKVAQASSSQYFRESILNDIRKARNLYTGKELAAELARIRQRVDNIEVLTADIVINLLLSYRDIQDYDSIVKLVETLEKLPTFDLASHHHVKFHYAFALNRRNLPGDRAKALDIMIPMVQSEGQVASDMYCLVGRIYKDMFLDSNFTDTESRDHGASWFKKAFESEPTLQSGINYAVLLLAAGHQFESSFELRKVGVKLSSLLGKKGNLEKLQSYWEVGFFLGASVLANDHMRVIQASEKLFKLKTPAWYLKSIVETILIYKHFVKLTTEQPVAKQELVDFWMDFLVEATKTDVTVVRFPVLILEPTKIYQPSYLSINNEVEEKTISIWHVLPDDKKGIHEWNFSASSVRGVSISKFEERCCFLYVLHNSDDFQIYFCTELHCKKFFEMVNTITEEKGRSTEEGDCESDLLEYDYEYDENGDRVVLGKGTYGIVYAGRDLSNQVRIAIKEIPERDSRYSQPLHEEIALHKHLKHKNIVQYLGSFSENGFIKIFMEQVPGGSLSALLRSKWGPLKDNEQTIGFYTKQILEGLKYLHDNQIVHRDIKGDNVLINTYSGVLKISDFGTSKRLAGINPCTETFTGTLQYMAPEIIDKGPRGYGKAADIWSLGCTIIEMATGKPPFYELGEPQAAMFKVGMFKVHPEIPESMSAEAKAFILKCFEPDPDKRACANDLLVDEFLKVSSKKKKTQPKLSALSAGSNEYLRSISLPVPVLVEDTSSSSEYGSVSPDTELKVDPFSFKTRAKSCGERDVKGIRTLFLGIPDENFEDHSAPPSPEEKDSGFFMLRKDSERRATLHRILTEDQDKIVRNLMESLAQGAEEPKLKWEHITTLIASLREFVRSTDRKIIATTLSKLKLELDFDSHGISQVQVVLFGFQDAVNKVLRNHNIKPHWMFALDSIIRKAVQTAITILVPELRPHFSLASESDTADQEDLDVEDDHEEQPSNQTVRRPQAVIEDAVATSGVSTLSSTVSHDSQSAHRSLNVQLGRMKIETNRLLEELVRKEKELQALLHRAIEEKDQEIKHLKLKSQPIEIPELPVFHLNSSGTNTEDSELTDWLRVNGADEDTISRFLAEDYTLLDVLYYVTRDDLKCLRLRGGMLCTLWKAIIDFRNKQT
# Chain of PKCι(h) (P41743 whole entry): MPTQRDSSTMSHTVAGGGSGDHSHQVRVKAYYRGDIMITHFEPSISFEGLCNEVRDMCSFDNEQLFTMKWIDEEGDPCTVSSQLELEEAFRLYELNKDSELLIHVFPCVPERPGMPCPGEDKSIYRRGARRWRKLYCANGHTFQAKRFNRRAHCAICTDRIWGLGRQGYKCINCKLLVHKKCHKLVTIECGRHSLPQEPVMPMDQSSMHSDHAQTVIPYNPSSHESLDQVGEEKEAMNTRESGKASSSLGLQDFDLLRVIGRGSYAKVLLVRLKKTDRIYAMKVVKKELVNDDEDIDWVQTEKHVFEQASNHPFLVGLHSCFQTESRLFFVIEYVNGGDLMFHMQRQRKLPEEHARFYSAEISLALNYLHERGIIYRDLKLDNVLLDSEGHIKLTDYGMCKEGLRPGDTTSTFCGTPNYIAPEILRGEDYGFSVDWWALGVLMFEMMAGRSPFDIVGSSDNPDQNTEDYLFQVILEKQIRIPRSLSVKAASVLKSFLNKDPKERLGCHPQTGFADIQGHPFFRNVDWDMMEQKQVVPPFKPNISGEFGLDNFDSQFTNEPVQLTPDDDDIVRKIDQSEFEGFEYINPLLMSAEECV
# Chain of MSK2(h) (O75676 whole entry): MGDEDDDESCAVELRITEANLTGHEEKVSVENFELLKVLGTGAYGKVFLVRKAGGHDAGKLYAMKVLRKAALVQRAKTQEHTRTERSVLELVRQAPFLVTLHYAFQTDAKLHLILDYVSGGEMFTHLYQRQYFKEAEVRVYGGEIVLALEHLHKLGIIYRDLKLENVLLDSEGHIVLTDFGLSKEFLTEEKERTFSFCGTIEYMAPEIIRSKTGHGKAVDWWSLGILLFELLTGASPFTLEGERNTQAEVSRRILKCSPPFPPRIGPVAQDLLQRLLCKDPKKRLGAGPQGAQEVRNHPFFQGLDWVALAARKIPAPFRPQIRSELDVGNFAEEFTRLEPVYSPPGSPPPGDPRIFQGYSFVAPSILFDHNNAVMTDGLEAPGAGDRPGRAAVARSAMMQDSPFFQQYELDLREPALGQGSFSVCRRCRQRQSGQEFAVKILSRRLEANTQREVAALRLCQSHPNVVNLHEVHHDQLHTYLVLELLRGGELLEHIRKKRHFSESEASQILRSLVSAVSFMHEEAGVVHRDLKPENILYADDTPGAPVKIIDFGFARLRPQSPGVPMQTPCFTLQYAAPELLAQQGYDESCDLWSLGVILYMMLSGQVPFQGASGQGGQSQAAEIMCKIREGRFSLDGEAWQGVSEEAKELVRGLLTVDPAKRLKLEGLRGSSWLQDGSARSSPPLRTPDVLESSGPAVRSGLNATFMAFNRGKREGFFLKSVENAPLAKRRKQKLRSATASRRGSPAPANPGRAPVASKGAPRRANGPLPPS
# Chain of CDK7/cyclinH/MAT1(h) (P50613 whole entry): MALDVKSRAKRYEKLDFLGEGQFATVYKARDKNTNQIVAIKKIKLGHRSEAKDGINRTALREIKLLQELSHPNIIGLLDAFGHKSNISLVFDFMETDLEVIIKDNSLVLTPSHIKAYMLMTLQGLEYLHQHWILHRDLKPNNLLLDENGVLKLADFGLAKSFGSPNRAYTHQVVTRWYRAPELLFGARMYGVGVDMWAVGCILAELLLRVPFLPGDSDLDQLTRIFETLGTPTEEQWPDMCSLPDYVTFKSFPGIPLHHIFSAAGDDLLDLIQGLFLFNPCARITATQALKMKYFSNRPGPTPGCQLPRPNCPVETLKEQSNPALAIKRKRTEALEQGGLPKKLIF
# Chain of CDK7/cyclinH/MAT1(h) (P51946 whole entry partner): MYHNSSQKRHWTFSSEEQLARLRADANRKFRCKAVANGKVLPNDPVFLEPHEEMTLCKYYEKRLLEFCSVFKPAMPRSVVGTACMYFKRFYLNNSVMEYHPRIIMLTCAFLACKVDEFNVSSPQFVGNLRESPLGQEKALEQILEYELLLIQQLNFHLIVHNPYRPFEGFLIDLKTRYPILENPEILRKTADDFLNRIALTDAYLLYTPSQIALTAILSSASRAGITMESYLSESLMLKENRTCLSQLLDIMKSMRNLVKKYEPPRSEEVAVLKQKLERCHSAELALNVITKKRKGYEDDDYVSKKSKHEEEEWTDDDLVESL
# Chain of CDK7/cyclinH/MAT1(h) (P51948 whole entry partner): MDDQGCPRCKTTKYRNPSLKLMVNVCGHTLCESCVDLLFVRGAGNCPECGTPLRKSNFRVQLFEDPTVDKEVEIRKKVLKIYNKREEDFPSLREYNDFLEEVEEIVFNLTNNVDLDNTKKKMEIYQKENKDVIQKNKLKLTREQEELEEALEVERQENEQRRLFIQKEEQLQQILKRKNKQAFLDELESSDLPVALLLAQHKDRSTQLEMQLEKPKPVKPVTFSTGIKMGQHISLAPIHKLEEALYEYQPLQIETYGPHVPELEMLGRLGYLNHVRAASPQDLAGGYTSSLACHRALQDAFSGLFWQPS
# Chain of IGF-1R(h) (P08069 31-1367): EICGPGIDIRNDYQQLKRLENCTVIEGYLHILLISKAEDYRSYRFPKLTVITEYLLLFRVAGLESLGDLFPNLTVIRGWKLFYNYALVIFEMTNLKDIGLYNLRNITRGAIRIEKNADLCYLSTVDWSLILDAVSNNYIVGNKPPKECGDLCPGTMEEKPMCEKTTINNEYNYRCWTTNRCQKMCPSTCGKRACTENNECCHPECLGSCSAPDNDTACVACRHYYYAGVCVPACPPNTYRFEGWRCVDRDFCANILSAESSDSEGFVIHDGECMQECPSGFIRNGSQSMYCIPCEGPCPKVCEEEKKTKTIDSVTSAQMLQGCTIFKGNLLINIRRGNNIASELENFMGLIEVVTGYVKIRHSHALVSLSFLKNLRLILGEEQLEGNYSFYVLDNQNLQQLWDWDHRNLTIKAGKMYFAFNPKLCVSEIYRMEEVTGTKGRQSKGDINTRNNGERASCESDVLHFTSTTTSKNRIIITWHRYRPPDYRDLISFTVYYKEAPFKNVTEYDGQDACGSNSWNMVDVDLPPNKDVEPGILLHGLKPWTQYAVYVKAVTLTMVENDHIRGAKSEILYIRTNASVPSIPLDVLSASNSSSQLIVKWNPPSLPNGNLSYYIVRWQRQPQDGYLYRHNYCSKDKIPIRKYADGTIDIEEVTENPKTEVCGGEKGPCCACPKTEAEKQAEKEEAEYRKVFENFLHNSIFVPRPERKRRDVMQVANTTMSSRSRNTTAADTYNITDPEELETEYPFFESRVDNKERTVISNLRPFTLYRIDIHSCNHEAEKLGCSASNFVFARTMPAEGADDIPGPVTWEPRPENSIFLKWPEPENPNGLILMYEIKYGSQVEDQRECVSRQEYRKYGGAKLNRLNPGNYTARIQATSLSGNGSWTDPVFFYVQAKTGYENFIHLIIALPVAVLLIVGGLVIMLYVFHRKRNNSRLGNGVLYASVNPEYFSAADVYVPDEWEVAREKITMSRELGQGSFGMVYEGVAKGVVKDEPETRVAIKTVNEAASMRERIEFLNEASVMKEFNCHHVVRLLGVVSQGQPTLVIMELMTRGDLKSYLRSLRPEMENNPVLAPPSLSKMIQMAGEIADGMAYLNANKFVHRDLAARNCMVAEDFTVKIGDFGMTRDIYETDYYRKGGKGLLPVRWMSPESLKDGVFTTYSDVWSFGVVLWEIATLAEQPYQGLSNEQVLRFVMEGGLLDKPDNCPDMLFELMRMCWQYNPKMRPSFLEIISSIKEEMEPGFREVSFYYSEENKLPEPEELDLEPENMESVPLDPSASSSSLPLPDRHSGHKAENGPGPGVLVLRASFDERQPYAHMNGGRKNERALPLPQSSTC
remaining activity at 2.5 µM [1],remaining activity at 2.5 µM [2],remaining activity at 2.5 µM [3],remaining activity at 2.5 µM [4],remaining activity at 2.5 µM [5],remaining activity at 2.5 µM [6],SMILES
115%,50%,103%,72%,72%,98%,CN1CCCC1CCNC(=O)c1cn2c3c(c(N4CCC(c5cnccn5)C4)c(F)cc3c1=O)Oc1cc3ccccc3cc1-2 (stereo not drawn) [Compound A-1]
113%,94%,113%,95%,95%,110%,CC(=O)N1CCN(c2ccc3c(=O)c(C(=O)NCCN4CCCC4)c4n(C)c5ccccc5n4c3n2)CC1 [Compound B-1]
